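Test compounds were applied to cells in 96-well plates for 48 hours at 5 doses. At the GI50, growth is halved.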 The source made the active and inactive calls. Rule as the data show it: active = GI50 up to about 1.1 µM and inactive = higher.
Key:
Assay in all cases: growth of human tumour cells (NCI), 48 h
[1] = tested on: HL-60
[2] = tested on: K562
[3] = tested on: SF-295
[4] = tested on: EKVX
[5] = tested on: MOLT-4
[6] = tested on: SF-539
[7] = tested on: U-251
[8] = tested on: XF498
[9] = tested on: NCI-H226
[10] = tested on: SK-MEL-2
[11] = tested on: CAKI-1
[12] = tested on: HT-29
[13] = tested on: SW-620
[14] = tested on: OVCAR-4
[15] = tested on: SK-OV-3
[16] = tested on: HOP-62
[17] = tested on: M19-MEL
[18] = tested on: CCRF-CEM
[19] = tested on: HOP-92
[20] = tested on: KM-20L2
[21] = tested on: UACC-62
[22] = tested on: UO-31
[23] = tested on: OVCAR-8
[24] = tested on: LOX IMVI
[25] = tested on: RPMI-8226
[26] = tested on: RXF 393
[27] = tested on: ACHN
[28] = tested on: NCI-H23
[29] = tested on: OVCAR-3
[30] = tested on: 786-0
[31] = tested on: KM12
[32] = tested on: SN12C
[33] = tested on: NCI-H522
[34] = tested on: A549
[35] = tested on: SR
[36] = tested on: UACC-257
[37] = tested on: SF-268
[38] = tested on: LXFL 529
[39] = tested on: OVCAR-5
[40] = tested on: DMS-273
[41] = tested on: NCI-H460
[42] = tested on: M14
[43] = tested on: A498
[44] = tested on: HCT-116
[45] = tested on: COLO 205
[46] = tested on: SNB-19
[47] = tested on: HCT-15
[48] = tested on: SNB-78
[49] = tested on: Malme-3M
[50] = tested on: IGROV-1
[51] = tested on: SK-MEL-28
[52] = tested on: SNB-75
[53] = tested on: HCC 2998
[54] = tested on: TK-10
[55] = tested on: SK-MEL-5
[56] = tested on: DMS-114
[57] = tested on: DLD-1
[58] = tested on: NCI/ADR-RES
[59] = tested on: HOP-18

Measured: GI50

CCN(CC)CCn1c2ccccc2c(=O)c2c(OC)ccc(OC)c21
57.5 µM: [47]
inactive: [1] 84.3 µM | [2] 35.3 µM | [3] 61.2 µM | [4] > 100 µM | [5] 36.8 µM | [6] 39.1 µM | [7] 65.6 µM | [8] 87.5 µM | [9] 60.3 µM | [10] > 100 µM | [11] 68.5 µM | [12] 46.9 µM | [13] 6.59 µM | [14] > 100 µM | [15] > 10 µM | [16] > 100 µM | [17] 65 µM | [18] 46.6 µM | [19] > 94.2 µM | [20] 45.2 µM | [21] > 10 µM | [22] 43.9 µM | [23] 48.4 µM | [24] 36.5 µM | [25] 92.3 µM | [26] 32.4 µM | [27] 47.9 µM | [28] > 100 µM | [29] > 100 µM | [30] 69.5 µM | [31] 56.9 µM | [32] 52.4 µM | [33] > 96.4 µM | [34] 63.7 µM | [35] 32.2 µM | [36] 45.8 µM | [37] 55.8 µM | [38] 68.5 µM | [39] 99.5 µM | [40] 37.3 µM | [41] 41.9 µM | [42] > 100 µM | [43] 97.5 µM | [44] 37.9 µM | [45] 38.7 µM | [46] > 100 µM | [48] 40.6 µM | [49] 77.4 µM | [50] > 10 µM

CCO[C@]12C[C@H](OC)[C@@]3(O)CC(C1[C@H]3OCc1ccccc1)C13C4C2[C@H](OC)C1[C@](COC)(CN4CC)[C@H](O)C[C@@H]3OC (stereo not given in full)
inactive: [1] > 100 µM | [2] > 100 µM | [51] > 100 µM | [52] > 100 µM | [4] > 100 µM | [5] 95.9 µM | [6] > 100 µM | [7] > 100 µM | [8] > 100 µM | [9] > 100 µM | [12] > 100 µM | [13] > 100 µM | [14] > 100 µM | [15] > 100 µM | [16] > 100 µM | [17] > 100 µM | [18] > 100 µM | [20] > 100 µM | [21] > 100 µM | [22] > 100 µM | [23] > 100 µM | [53] > 100 µM | [24] > 100 µM | [25] > 100 µM | [26] > 100 µM | [27] > 100 µM | [54] > 100 µM | [28] > 100 µM | [30] 7.38 µM | [32] > 100 µM | [34] > 100 µM | [35] 78.5 µM | [36] > 100 µM | [37] > 100 µM | [38] > 100 µM | [39] > 100 µM | [40] > 100 µM | [41] > 100 µM | [55] > 100 µM | [42] > 100 µM | [44] > 100 µM | [45] > 100 µM | [46] > 100 µM | [56] > 100 µM | [57] > 100 µM | [48] > 100 µM | [50] > 100 µM
> 100 µM: [47]

O=C1C=C2C(=CCOC2O)O1 (stereo not given) [PATULIN]
inactive: [52] 4.28 µM | [9] 3.49 µM | [10] 1.37 µM | [14] 2.84 µM | [16] 10.6 µM | [17] 1.29 µM | [19] 3.08 µM | [20] 2.28 µM | [53] 1.15 µM | [28] 1.15 µM | [34] 4.1 µM | [39] 7.4 µM | [41] 1.16 µM | [59] 1.98 µM | [48] 2.32 µM | [50] 2.1 µM
0.668 µM: [47]
active: [5] 0.368 µM | [8] 0.267 µM | [58] 0.733 µM | [18] 0.158 µM | [21] 0.851 µM | [25] 0.189 µM | [32] 0.618 µM | [33] 0.365 µM | [36] 0.723 µM | [40] 0.881 µM | [55] 1 µM | [44] 0.223 µM | [56] 1.08 µM | [57] 0.456 µM | [49] 1.12 µM
